Data as given in ChEMBL document CHEMBL1681705, “Optimisation of ITK inhibitors through successive iterative design cycles” (Bioorg Med Chem Lett, 2011).

What was measured:
[1] = target: Ribosomal protein S6 kinase alpha-1 (Homo sapiens) (UniProt Q15418); assay: Inhibition of Rsk1 at 1 uM
[2] = target: T1, Tyrosine-protein kinase ITK/TSK (Homo sapiens) (UniProt Q08881); assay: Inhibition of Itk at 0.1 uM; values are per cent of control
T1 sequence (whole entry): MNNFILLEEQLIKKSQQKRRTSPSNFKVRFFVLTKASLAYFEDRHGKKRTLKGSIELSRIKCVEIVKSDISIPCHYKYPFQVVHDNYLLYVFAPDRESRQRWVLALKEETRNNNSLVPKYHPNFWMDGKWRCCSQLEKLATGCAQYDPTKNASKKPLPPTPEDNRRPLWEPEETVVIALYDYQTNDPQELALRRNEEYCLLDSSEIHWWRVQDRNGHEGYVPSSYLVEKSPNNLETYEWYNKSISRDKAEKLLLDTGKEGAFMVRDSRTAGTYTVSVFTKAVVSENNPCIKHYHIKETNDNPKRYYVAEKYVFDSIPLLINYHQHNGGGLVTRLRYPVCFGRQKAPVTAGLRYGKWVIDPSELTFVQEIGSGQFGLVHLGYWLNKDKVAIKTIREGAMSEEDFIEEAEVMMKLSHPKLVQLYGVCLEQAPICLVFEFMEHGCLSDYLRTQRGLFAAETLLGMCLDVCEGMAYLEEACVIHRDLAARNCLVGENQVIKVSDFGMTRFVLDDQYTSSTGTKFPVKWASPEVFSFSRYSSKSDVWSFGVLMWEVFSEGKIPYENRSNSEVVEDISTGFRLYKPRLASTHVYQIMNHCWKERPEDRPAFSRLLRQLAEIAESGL

[3] = target: Epidermal growth factor receptor (Homo sapiens) (UniProt P00533); assay: Inhibition of EGFR at 0.1 uM; values are per cent of control
Sequence of Epidermal growth factor receptor (Homo sapiens) (P00533 whole entry): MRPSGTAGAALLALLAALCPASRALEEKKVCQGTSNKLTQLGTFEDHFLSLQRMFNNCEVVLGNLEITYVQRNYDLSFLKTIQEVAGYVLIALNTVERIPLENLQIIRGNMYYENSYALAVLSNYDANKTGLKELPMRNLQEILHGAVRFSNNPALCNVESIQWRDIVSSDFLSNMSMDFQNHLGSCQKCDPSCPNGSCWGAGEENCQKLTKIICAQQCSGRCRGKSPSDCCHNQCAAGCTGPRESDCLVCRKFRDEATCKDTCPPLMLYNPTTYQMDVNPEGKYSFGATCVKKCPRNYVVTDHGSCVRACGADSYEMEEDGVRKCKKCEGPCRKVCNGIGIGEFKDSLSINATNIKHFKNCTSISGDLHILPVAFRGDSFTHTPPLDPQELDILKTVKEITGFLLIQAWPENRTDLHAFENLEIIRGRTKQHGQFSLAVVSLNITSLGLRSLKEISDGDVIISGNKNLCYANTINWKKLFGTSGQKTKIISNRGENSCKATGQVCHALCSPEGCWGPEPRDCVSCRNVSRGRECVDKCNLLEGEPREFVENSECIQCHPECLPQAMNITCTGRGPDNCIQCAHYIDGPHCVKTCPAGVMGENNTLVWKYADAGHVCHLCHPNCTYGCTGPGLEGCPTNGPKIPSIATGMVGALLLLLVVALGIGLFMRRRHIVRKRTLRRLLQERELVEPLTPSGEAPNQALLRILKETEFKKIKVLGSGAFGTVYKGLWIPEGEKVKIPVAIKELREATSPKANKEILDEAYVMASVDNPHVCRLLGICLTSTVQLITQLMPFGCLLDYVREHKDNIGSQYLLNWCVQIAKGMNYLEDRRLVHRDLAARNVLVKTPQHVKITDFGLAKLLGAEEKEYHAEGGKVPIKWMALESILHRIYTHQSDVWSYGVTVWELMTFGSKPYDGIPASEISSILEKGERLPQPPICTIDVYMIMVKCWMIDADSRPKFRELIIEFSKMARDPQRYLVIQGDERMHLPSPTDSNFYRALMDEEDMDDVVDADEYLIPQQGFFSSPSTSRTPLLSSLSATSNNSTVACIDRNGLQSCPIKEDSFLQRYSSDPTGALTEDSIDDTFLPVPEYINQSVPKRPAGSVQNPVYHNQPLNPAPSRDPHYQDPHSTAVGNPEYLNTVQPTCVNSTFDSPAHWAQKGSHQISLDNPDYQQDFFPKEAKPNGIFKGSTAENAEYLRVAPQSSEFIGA

[4] = target: T2, Serine/threonine-protein kinase D2 (Homo sapiens) (UniProt Q9BZL6); assay: Inhibition of PKD2 at 0.1 uM; values are per cent of control
T2 sequence (whole entry): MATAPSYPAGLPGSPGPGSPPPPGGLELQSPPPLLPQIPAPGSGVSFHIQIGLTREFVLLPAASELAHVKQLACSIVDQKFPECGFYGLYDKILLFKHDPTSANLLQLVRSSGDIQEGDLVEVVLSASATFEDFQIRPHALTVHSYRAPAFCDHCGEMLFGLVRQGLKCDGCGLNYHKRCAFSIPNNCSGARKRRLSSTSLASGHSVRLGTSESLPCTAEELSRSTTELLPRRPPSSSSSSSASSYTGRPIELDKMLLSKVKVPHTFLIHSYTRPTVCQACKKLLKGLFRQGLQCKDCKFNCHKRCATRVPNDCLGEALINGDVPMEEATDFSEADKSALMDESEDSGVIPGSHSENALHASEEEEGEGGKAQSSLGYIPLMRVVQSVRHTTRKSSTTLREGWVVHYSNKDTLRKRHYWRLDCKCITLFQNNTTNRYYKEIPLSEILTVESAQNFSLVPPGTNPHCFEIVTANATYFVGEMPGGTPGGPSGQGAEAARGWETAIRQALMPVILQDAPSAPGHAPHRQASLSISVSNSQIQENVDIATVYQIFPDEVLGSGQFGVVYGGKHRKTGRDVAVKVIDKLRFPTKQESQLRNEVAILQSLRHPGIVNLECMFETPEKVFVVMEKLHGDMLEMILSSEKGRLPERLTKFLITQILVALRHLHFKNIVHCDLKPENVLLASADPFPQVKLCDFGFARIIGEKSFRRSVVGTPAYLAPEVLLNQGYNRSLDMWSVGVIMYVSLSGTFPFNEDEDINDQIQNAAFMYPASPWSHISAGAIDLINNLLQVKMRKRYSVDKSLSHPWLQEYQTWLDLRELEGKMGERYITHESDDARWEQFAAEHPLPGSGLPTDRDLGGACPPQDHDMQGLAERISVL

[5] = target: T3, Calcium/calmodulin-dependent protein kinase type IV (Homo sapiens) (UniProt Q16566); assay: Inhibition of CaMK4 at 0.1 uM; values are per cent of control
T3 sequence (whole entry): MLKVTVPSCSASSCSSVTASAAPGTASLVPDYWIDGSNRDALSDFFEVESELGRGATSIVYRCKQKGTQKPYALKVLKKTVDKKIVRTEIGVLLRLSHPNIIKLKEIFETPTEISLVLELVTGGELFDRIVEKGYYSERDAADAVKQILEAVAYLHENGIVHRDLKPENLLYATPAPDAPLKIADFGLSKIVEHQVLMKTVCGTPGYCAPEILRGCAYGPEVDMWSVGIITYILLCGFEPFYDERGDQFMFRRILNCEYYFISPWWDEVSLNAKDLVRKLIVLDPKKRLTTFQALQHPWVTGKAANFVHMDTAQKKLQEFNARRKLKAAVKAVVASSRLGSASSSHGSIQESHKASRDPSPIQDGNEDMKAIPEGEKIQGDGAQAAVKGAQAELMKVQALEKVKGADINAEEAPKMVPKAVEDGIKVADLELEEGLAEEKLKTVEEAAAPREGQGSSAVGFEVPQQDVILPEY

[6] = target: Ephrin type-A receptor 4 (Homo sapiens) (UniProt P54764); assay: Inhibition of EphA4 at 0.1 uM; values are per cent of control
Sequence of Ephrin type-A receptor 4 (Homo sapiens) (P54764 whole entry): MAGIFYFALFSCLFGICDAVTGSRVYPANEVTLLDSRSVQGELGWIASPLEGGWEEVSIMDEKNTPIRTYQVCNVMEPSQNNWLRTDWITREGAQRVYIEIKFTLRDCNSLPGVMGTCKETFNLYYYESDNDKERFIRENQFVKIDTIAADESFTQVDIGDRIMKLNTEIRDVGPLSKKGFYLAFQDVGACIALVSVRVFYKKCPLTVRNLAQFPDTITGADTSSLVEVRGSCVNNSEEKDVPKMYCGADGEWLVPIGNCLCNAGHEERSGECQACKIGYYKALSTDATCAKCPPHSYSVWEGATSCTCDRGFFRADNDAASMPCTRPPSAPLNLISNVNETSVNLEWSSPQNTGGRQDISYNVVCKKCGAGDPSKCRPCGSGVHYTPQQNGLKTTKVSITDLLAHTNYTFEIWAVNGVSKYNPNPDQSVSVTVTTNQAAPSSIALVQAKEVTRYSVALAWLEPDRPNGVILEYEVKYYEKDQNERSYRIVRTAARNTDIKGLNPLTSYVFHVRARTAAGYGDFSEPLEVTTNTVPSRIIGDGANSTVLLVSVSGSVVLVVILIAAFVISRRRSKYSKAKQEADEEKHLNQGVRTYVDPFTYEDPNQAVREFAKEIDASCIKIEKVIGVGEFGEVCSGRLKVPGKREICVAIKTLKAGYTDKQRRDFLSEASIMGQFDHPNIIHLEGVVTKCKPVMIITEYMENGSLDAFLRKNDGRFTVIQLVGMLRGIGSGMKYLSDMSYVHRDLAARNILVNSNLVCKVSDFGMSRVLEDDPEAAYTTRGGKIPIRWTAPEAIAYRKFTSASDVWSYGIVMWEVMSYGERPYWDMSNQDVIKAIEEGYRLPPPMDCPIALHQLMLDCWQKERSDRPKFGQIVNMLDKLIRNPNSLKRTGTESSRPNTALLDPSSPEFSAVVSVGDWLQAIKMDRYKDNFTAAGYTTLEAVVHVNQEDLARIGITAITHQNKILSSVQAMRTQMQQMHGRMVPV

[7] = target: Interleukin-1 receptor-associated kinase 1 (Homo sapiens) (UniProt P51617); assay: Inhibition of IRAK1 at 0.1 uM; values are per cent of control
Sequence of Interleukin-1 receptor-associated kinase 1 (Homo sapiens) (P51617 whole entry, looked up): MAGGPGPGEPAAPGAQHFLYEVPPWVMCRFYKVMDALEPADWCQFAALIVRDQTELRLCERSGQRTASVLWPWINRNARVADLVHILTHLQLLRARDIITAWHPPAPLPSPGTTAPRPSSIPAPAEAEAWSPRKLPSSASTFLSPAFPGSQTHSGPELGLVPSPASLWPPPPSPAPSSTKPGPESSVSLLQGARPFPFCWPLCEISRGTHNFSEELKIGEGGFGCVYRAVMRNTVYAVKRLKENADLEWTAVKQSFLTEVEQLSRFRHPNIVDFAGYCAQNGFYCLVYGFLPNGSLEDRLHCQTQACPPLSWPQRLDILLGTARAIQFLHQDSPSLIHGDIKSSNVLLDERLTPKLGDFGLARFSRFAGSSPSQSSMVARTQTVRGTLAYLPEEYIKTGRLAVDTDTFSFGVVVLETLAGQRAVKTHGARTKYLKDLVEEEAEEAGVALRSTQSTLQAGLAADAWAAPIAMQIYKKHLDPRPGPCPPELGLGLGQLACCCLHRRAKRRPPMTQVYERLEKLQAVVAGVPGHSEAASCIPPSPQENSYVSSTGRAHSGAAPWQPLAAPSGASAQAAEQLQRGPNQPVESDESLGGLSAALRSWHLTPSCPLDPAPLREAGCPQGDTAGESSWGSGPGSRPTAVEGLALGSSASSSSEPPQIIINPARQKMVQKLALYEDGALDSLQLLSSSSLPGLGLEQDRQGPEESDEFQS

[8] = target: T4, Protein kinase C iota type (Homo sapiens) (UniProt P41743); assay: Inhibition of PKCiota at 1 uM; values are per cent of control
T4 sequence (whole entry): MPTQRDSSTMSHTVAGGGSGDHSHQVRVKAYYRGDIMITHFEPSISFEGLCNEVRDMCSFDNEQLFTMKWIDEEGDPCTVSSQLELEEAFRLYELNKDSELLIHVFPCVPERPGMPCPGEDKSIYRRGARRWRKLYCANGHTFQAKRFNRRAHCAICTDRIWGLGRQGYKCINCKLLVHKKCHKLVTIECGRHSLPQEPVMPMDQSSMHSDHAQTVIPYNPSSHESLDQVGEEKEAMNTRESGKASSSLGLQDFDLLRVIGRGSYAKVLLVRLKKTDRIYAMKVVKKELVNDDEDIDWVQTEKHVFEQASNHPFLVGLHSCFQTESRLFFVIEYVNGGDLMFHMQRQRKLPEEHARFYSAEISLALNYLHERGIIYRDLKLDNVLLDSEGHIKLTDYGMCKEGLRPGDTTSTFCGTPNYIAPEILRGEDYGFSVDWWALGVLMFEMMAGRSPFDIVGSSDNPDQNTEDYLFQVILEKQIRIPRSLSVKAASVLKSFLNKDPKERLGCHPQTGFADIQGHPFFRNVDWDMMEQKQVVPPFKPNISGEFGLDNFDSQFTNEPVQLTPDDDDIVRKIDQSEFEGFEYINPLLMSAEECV

Sequence of Ribosomal protein S6 kinase alpha-1 (Homo sapiens) (Q15418 whole entry): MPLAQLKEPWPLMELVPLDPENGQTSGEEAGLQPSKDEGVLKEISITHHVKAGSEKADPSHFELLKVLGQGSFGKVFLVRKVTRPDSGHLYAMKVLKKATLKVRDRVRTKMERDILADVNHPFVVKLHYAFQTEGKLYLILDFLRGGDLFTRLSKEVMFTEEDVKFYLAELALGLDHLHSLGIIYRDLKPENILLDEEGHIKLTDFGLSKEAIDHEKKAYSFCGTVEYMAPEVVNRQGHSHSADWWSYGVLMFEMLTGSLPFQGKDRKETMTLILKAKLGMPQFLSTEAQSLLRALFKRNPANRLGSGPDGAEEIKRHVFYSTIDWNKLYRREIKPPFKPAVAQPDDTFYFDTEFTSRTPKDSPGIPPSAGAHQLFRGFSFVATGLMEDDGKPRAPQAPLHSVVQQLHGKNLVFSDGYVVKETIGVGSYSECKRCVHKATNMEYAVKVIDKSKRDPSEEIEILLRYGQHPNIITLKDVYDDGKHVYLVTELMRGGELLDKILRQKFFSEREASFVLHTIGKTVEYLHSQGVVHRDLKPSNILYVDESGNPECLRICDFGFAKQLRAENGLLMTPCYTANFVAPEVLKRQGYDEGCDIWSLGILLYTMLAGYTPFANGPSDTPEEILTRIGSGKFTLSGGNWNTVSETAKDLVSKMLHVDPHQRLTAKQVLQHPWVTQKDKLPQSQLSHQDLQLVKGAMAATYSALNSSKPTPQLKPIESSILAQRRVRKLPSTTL

Row | SMILES | inhibition [1] | residual activity [2] | residual activity [3] | residual activity [4] | residual activity [5] | residual activity [6] | residual activity [7] | residual activity [8]
1 | Cc1ccc2cc(-c3n[nH]c4ccc(NC5CCNC5)cc34)[nH]c2c1 (stereo unspecified) | -1% | 41% | 94% | 41% | 74% | 98% | 56% | 76%
2 | Cc1ccc2cc(-c3n[nH]c4ccc(NC5CCN(Cc6ccccc6)CC5)cc34)[nH]c2c1 | 1% | 14% | 28% | 93% | 109% | 99% | 47% | 90%
